Earlier results, collected in patent publication US10350179B2, “Combination comprising palmitoylethanolamide (PEA) and lycopene for use in the treatment of inflammatory diseases” (Raffaele MIGLIACCIO, priority 2015, dated 2019).

Conditions: dietary intake, background statement

SMILES: CC(C)=CCC/C(C)=C/C=C/C(C)=C/C=C/C(C)=C/C=C/C=C(C)/C=C/C=C(C)/C=C/C=C(\C)CCC=C(C)C [Lycopene]
- Concentration in human plasma: 220 to 1060 nM
